Patent publication US20210355104A1, “ADENOSINE RECEPTOR BINDING COMPOUNDS” (Nikang Therapeuticsm Inc., priority 2018, published 2021)
Several values for one entry are separate records, joined by “and”; a condition that tells them apart may be missing. Equal values may be shown once. Read-outs that look alike come from different tables or passages of the source.

Assays:
[1] = tested on: p-CREB (phosphorylated cAMP response-element binding protein) in human whole blood; assay: p-CREB assay in human whole blood by flow cytometry (NECA stimulation, CD4 staining); format: cell-based
Procedure: Assay protocol for p-CREB (phosphorylated cAMP response-element binding protein) in human whole blood by flow cytometry
Fresh human whole blood (Biological Specialty Corporation) was added at 100 ul per wellinto a 96-well plate and treated with test compounds (Serial dilutions of 1:3 with starting concentration at 30 uM, 11 concentrations total, in the presence of adenosine deaminase) for one hour at room temperature on a plate shaker. Then 10 ul of 10× NECA (50 uM stock in PBS) and 10 ul of 10 × Rolipram (50 uM stock in PBS) were added, with designated wells for unstimulated (Rolipram+DMSO) and stimulated (Rolipram+NECA+DMSO) conditions. The plates were mixed well and incubated at room temperature for 30 min on a plate shaker. 1× lyse/Fix buffer (5× stock, BD #558049) was warmed to 37° in a water bath. 1200 ul of pre-warmed 1× lyse/Fix buffer was then added to the plate, which was then sealed and mixed by inverting the plate a few times. The plate was then incubated for 30 min at 37° in a water bath. After incubation, the plate was centrifuged at 1600 rpm for 5 min and the supernatant was decanted, then 1200 ul PBS was added and the plate was mixed by inverting a few times followed by centrifuging at 1600 rpm for 5 min and again decanting the supernatant. Then, 200 ul FIX PERM buffer II (BD #558052) was added and the plate was mixed well, then kept on ice for 45 min After spinning the plate at 1600 rpm for 5 min the supernatant was again decanted. Then was added 200 ul staining buffer (BD #554657), and the plate was mixed well and spun at 1600 rpm for 5 min, then the supernatant was again decanted. 200 ul staining buffer was added, the plate was mixed well and the plate was sealed at this step for storage at 4° overnight or until staining. Before staining, the plate was spun at 1600 rpm for 5 min and the supernatant was again decanted. Antibody mix in staining buffer was prepared (75 ul/well, 1:50 dilution for p-CREB antibody from Cell Signaling Tech #14001S, 1:200 dilution for CD4 antibody from BD #566320) and the cells were resuspended in the above antibody mix solution. After mixing well, the plate was incubated (shielded from light) at room temperature for two hours on a plate shaker. It was then spun at 1600 rpm for 5 min and the supernatant was decanted. 200 ul staining buffer was then added to wash cells, and the plate was then mixed by shaking or pipetting. The wash step was repeated at least one more time, and after the final wash, cells were resusptended in 200 ul staining buffer in U bottom plate for flow cytometry analysis.

[2] = molecular target: T1, Adenosine A2A receptor (Homo sapiens, UniProt P29274); assay: cAMP assay in 293A cells stably expressing the adenosine A2A receptor (CGS21680 stimulation, HTRF); format: cell-based; set-up: expressed in transfected cells; host or cells: 293A cells (Invitrogen, Cat# R705-07) infected with A2A-expressing lentivirus (custom packaged by Biosettia), puromycin selected; details: 293A-A2AR cells, 0.1% BSA
[3] = molecular target: T1, Adenosine A2A receptor; assay: Adenosine A2A receptor competitive binding assay (Tag-lite HTRF); details: Tag-lite adenosine A2A receptor ligand binding, HTRF
Procedure, shortened: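 Compound displacement of a red fluorescent antagonist tracer (added at 60 nM stock) from donor-labelled, pre-transfected human A2A cells was read by HTRF after 2 h at room temperature; compound dilutions contained 0.6% DMSO.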

[4] = 1 uM CGS, read-out: cAMP (nM) 0.1% BSA, 1 uM CGS
[5] = Homo sapiens, values separated by / are repeat determinations
[6] = 8 nM CGS, values separated by / are repeat determinations, read-out: cAMP (nM) 0.1% BSA, 8 nM CGS
[7] = 1 uM CGS, values separated by / are repeat determinations, read-out: cAMP (nM) 0.1% BSA, 1 uM CGS

T1 sequence (P29274 whole entry): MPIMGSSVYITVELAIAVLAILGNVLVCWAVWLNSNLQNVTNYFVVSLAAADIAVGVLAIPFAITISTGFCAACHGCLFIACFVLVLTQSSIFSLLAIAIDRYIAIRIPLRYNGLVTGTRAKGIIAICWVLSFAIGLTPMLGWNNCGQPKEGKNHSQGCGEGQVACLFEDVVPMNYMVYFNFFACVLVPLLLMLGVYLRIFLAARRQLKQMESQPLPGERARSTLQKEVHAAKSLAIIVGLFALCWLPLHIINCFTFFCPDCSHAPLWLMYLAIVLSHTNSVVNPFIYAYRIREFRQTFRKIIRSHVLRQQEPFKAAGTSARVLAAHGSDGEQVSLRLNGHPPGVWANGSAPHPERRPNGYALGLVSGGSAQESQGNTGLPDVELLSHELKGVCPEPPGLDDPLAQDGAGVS

| SMILES | IC50 ([1]; Homo sapiens) | IC50 [2, 4] | other results |
| --- | --- | --- | --- |
| Cc1cc(-c2c(OCc3cccc([C@@H]4C[C@H]4C(=O)O)n3)nc(N)nc2-c2ccc(F)cc2)cc(C(F)F)n1 (relative stereo) [Example 353, (1,2-trans)-2-(6-(((2-amino-5-(2-(difluoromethyl)-6-methylpyridin-4-yl)-6-(4-fluorophenyl)pyrimidin-4-yl)oxy)methyl)pyridin-2-yl)cyclopropane-1-carboxylic acid] | 374 nM | 1240 nM |  |
| Cc1cc(-c2c(OCc3cccc([C@@H]4C[C@@H]4C(=O)O)n3)nc(N)nc2-c2ccc(F)cc2)cc(C(F)F)n1 (relative stereo) [Example 354, (1,2-cis)-2-(6-(((2-amino-5-(2-(difluoromethyl)-6-methylpyridin-4-yl)-6-(4-fluorophenyl)pyrimidin-4-yl)oxy)methyl)pyridin-2-yl)cyclopropane-1-carboxylic acid] | 549 nM | 563 nM and 977 nM |  |
| CCN(CC)C(=O)COc1nc(N)nc(-c2ccccc2)c1-c1cc(C)nc(C(F)(F)F)c1 [Example 3, 2-((2-amino-5-(2-methyl-6-(trifluoromethyl)pyridin-4-yl)-6-phenylpyrimidin-4-yl)oxy)-N,N-diethylacetamide] |  |  | IC50 [1, 5]: 47 nM; IC50 [2, 6]: 0.6 nM; IC50 [2, 7]: 69 nM and 24 nM |
| Cc1cc(-c2c(OCc3nccn3C(C)C)nc(N)nc2-c2ccc(F)cc2)cc(C(F)F)n1 [Example 99, 5-(2-(difluoromethyl)-6-methylpyridin-4-yl)-4-(4-fluorophenyl)-6-((1-isopropyl-1H-imidazol-2-yl)methoxy)pyrimidin-2-amine] |  |  | IC50 [1, 5]: 47 nM; IC50 [2, 6]: 0.064 nM and 0.19 nM; IC50 [2, 7]: 32 nM and 22 nM |
| CCn1cnc(COc2nc(N)nc(-c3ccc(F)cc3)c2-c2cc(C)nc(C(F)F)c2)n1 [Example 221, 5-(2-(difluoromethyl)-6-methyipyridin-4-yl)-4-((1-ethyl-1H-1,2,4-triazol-3-yl)methoxy)-6-(4-fluorophenyl)pyrimidin-2-amine] |  | 444 nM | IC50 [3]: 24 nM |
| Cc1cc(-c2c(OCc3cccc(C(C)(C)C#N)n3)nc(N)nc2-c2ccc(F)cc2)cc(C(F)F)n1 [Example 230, 2-(6-(((2-amino-5-(2-(difluoromethyl)-6-methylpyridin-4-yl)-6-(4-fluorophenyl)pyrimidin-4-yl)oxy)methyl)pyridin-2-yl)-2-methylpropanenitrile] | 32.4 nM | 7 nM and 40 nM and 64 nM | IC50 [1]: 37.6 nM |
| Cc1cc(-c2c(OCc3nnn(C)n3)nc(N)nc2-c2ccc(F)cc2)cc(C(F)F)n1 [Example 241, 5-(2-(difluoromethyl)-6-methylpyridin-4-yl)-4-(4-fluorophenyl)-6-((2-methyl-2H-tetrazol-5-yl)methoxy)pyrimidin-2-amine] | 221 nM | 213 nM |  |
| Cc1cc(-c2c(OCc3cccc(C(C)(C)C(=O)O)n3)nc(N)nc2-c2ccc(F)cc2)cc(C(F)F)n1 [Example 263, 2-(6-(((2-amino-5-(2-(difluoromethyl)-6-methylpyridin-4-yl)-6-(4-fluorophenyl)pyrimidin-4-yl)oxy)methyl)pyridin-2-yl)-2-methylpropanoic acid] | 82 nM | 33 nM and 168 nM and 95 nM and 126 nM | IC50 [1]: 114 nM |
| Cc1cc(-c2c(OCc3ccn(CC(C)(C)C(=O)O)n3)nc(N)nc2-c2ccc(F)cc2)cc(C(F)F)n1 [Example 267, 3-(3-(((2-amino-5-(2-(difluoromethyl)-6-methylpyridin-4-yl)-6-(4-fluorophenyl)pyrimidin-4-yl)oxy)methyl)-1H-pyrazol-1-yl)-2,2-dimethylpropanoic acid] | 5580 nM |  |  |
| Cc1cc(-c2c(OC3CCn4ccnc43)nc(N)nc2-c2ccc(F)cc2)cc(C(F)F)n1 (stereo not drawn) [Example 284, 5-(2-(difluoromethyl)-6-methylpyridin-4-yl)-4-((6,7-dihydro-5H-pyrrolo[1,2-a]imidazol-7-yl)oxy)-6-(4-fluorophenyl)pyrimidin-2-amine] | 392 nM | 382 nM and 289 nM |  |
| CCn1nnnc1COc1nc(N)nc(-c2ccc(F)cc2)c1-c1cc(C)nc(C(F)F)c1 [Example 295, 5-(2-(difluoromethyl)-6-methylpyridin-4-yl)-4-((1-ethyl-1H-tetrazol-5-yl)methoxy)-6-(4-fluorophenyl)pyrimidin-2-amine] |  | 175 nM and 69 nM and 201 nM | IC50 [3]: 7.4 nM |

Further lines, with some results ahead:

| IC50 ([1]; Homo sapiens) | IC50 [2, 4] | SMILES | other results |
| --- | --- | --- | --- |
|  | 76 nM and 48 nM | Cc1cc(-c2c(OCc3ccncn3)nc(N)nc2-c2ccc(F)cc2)cc(C(F)F)n1 [Example 218, 5-(2-(difluoromethyl)-6-methylpyridin-4-yl)-4-(4-fluorophenyl)-6-(pyrimidin-4-ylmethoxy)pyrimidin-2-amine] | IC50 [3]: 1.7 nM |
|  | 788 nM | Cc1cc(-c2c(OCc3cccnn3)nc(N)nc2-c2ccc(F)cc2)cc(C(F)F)n1 [Example 223, 5-(2-(difluoromethyl)-6-methylpyridin-4-yl)-4-(4-fluorophenyl)-6-(pyridazin-3-ylmethoxy)pyrimidin-2-amine] | IC50 [3]: 4.1 nM |
|  | 1320 nM | Cc1cc(-c2c(OCc3cc(C(C)(C)O)ccn3)nc(N)nc2-c2ccc(F)cc2)cc(C(F)F)n1 [Example 224, 2-(2-(((2-amino-5-(2-(difluoromethyl)-6-methylpyridin-4-yl)-6-(4-fluorophenyl)pyrimidin-4-yl)oxy)methyl)pyridin-4-yl)propan-2-ol] | IC50 [3]: 9.5 nM |
| 17.8 nM | 29 nM and 97 nM and 71 nM | CCn1nccc1COc1nc(N)nc(-c2ccc(F)cc2)c1-c1cc(C)nc(C(F)F)c1 [Example 227, 5-(2-(difluoromethyl)-6-methylpyridin-4-yl)-4-((1-ethyl-1H-pyrazol-5-yl)methoxy)-6-(4-fluorophenyl)pyrimidin-2-amine] |  |
|  | 162 nM | CCn1ccc(COc2nc(N)nc(-c3ccc(F)cc3)c2-c2cc(C)nc(C(F)F)c2)n1 [Example 228, 5-(2-(difluoromethyl)-6-methylpyridin-4-yl)-4-((1-ethyl-1H-pyrazol-3-yl)methoxy)-6-(4-fluorophenyl)pyrimidin-2-amine] | IC50 [3]: 2.5 nM and 3.6 nM; IC50 ([2]; 8 nM CGS, read-out: cAMP (nM) 0.1% BSA, 8 nM CGS): 0.9 nM |
| 36.3 nM | 313 nM | Cc1cc(-c2c(OCc3ncccc3C(C)(C)O)nc(N)nc2-c2ccc(F)cc2)cc(C(F)F)n1 [Example 238] |  |
| 19 nM | 250 nM and 171 nM | Cc1cc(-c2c(OCc3cc(C(C)(C)C#N)ccn3)nc(N)nc2-c2ccc(F)cc2)cc(C(F)F)n1 [Example 257, 2-(2-(((2-amino-5-(2-(difluoromethyl)-6-methylpyridin-4-yl)-6-(4-fluorophenyl)pyrimidin-4-yl)oxy)methyl)pyridin-4-yl)-2-methylpropanenitrile] |  |
| 4910 nM |  | Cc1cc(-c2c(OCc3ccnc(N4CC(C)(O)C4)n3)nc(N)nc2-c2ccc(F)cc2)cc(C(F)F)n1 [Example 266, 1-(4-(((2-amino-5-(2-(difluoromethyl)-6-methylpyridin-4-yl)-6-(4-fluorophenyl)pyrimidin-4-yl)oxy)methyl)pyrimidin-2-yl)-3-methylazetidin-3-ol] |  |
| 50 nM | 90 nM and 21 nM and 100 nM | Cc1cc(-c2c(OCc3cccc(N(C)C)n3)nc(N)nc2-c2ccc(F)cc2)cc(C(F)F)n1 [Example 282, 5-(2-(difluoromethyl)-6-methylpyridin-4-yl)-4-((6-(dimethylamino)pyridin-2-yl)methoxy)-6-(4-fluorophenyl)pyrimidin-2-amine] |  |
| 179 nM | 378 nM and 272 nM | Cc1cc(-c2c(OCc3ccnnc3)nc(N)nc2-c2ccc(F)cc2)cc(C(F)F)n1 [Example 285, 5-(2-(difluoromethyl)-6-methylpyridin-4-yl)-4-(4-fluorophenyl)-6-(pyridazin-4-ylmethoxy)pyrimidin-2-amine] |  |
